PMC4960534, “Ligand binding to an Allergenic Lipid Transfer Protein Enhances Conformational Flexibility resulting in an Increase in Susceptibility to Gastroduodenal Proteolysis” (Scientific Reports, 2016)
Where two headings read alike, the source gives them in different places.

Legend:
wheat LTP [1] = biological target: T1, wheat LTP (Triticum aestivum, UniProt P24296); assay: CPA displacement assay (competitive, CPA as tracer); assay type: binding; details: for Ki: Cheng-Prusoff; for ΔG Wheat: ΔG = -RTln(Ki)
T1 construct: Intact protein (residues 1–90); from tissue; host or cells: wheat bran
T1 sequence (P24296 24-113): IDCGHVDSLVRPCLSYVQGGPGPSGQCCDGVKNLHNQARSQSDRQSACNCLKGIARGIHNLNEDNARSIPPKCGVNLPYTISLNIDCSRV
Protocol: (§1) Ligand binding was assessed using a fluorescence assay based on cis-parinaric acid originally described by Cooper et al.[22]. Fluorescence intensity was measured at 25 °C with a LS55 Luminescence Spectrometer (Perkin Elmer, Cambridge, UK) using a […] slit width for both excitation (λ = 320 nm) and emission (λ = 420 nm) and the measurement taken for no longer than 1.5–2s. CPA (3 mM in ethanol) was titrated by 1 μL injections into 1 mL of LTP solutions (5 μM in 50 mM phosphate buffer pH 7.5) in a stepwise manner. Binding curves were fitted with GraphPad Prism using the rectangular hyperbolic function of Hill’s equation. For non-fluorescent ligands, a competitive assay was developed using CPA as a tracer ligand. CPA concentrations close to the calculated Kd of each LTP[49][50] (at either 1 or 0.5 μM CPA for peach LTP and 2 or 1 μM CPA for wheat LTP in 50 mM phosphate buffer pH 7.5 or pH 2.5, 150 mM NaCl, respectively) were used. After equilibrating for 2–3 min with gentle mixing, the competing non-fluorescent ligands (1 mM of palmitic acid, 16-OH palmitic acid, 12-OH stearic acid, linoleic acid or 1-palmitoyl–sn–glycerol–3–phosphatadyl choline (PC) ethanol) were titrated into the LTP solution in 1 μL aliquots. The resulting data were fitted using a sigmoidal curve-fitting logarithm in GraphPad Prism from which the concentration able to displace 50% of the CPA (IC50) was calculated. Ki values were calculated according to Cheng-Prusoff equation[51].

peach LTP [2] = biological target: T2, peach LTP (Prunus persica, UniProt P81402, A9S/H76S); assay: as above; assay type: binding; details: for ΔG Peach: ΔG = -RTln(Ki)
T2 construct: Peach LTP was purified from the skin of peach fruits; from tissue; host or cells: skin of peach fruits
Protocol: as §1

peach LTP [3] = biological target: T3, peach LTP (Prunus persica, UniProt P81402); assay: CPA fluorescence titration, direct binding
T3 construct: Peach LTP was purified from the skin of peach fruits; from tissue; host or cells: skin of peach fruits
T3 sequence (P81402 1-91): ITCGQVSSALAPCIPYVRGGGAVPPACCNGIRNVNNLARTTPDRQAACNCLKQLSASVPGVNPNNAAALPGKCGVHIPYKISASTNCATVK
Protocol: as §1

wheat LTP [4] = biological target: T4, wheat LTP (Triticum aestivum, UniProt P24296); assay: CPA fluorescence titration, direct binding
T4 construct: Intact protein (residues 1–90); from tissue; host or cells: wheat bran
T4 sequence (P24296 24-90 limits assumed): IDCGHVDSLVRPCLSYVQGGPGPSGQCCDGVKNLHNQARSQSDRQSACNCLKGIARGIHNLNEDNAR
Protocol: as §1

[5] = 50 mM phosphate, pH 7.5, displacement of 2 μM CPA
[6] = 150 mM NaCl, pH 2.5, displacement of 1 μM CPA
[7] = 50 mM phosphate, pH 7.5, Cheng-Prusoff, read-out: Ki Peach
[8] = 50 mM phosphate, pH 7.5, displacement of 1 μM CPA, read-out: IC50 Peach
[9] = 150 mM NaCl, pH 2.5, Cheng-Prusoff, read-out: Ki Peach
[10] = 150 mM NaCl, pH 2.5, displacement of 0.5 μM CPA, read-out: IC50 Peach

T2 sequence (P81402 whole entry A9S/H76S): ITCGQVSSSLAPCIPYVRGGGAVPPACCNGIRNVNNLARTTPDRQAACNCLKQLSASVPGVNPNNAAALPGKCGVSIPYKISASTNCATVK

| Compound | Ki (wheat LTP [1]; 50 mM phosphate, pH 7.5) [nM] | IC50 (wheat LTP [1]; [5]) [nM] | ΔG Wheat (wheat LTP [1]; 50 mM phosphate, pH 7.5) [kcal/mol] | Ki (wheat LTP [1]; 150 mM NaCl, pH 2.5) [nM] | IC50 (wheat LTP [1]; [6]) [nM] | ΔG Wheat (wheat LTP [1]; 150 mM NaCl, pH 2.5) [kcal/mol] | Ki (peach LTP [2]; [7]) [nM] | IC50 (peach LTP [2]; [8]) [nM] | ΔG Peach (peach LTP [2]; 50 mM phosphate, pH 7.5) [kcal/mol] | Ki (peach LTP [2]; [9]) [nM] | IC50 (peach LTP [2]; [10]) [nM] | ΔG Peach (peach LTP [2]; 150 mM NaCl, pH 2.5) [kcal/mol] | Kd (peach LTP [3]; 50 mM phosphate, pH 7.5) [nM] | Kd (peach LTP [3]; 150 mM NaCl, pH 2.5) [nM] | Kd (wheat LTP [4]; 50 mM phosphate, pH 7.5) [nM] | Kd (wheat LTP [4]; 150 mM NaCl, pH 2.5) [nM] | IC50 (peach LTP [2]) [nM] | Ki (peach LTP [2]) [nM] |
| --- | --- | --- | --- | --- | --- | --- | --- | --- | --- | --- | --- | --- | --- | --- | --- | --- | --- | --- |
| 1-palmitoyl–sn–glycerol–3–phosphatadyl choline [Phosphatidyl choline] | 4600 ± 100 | 6700 ± 100 | 7.27 | 2800 ± 100 | 5300 ± 100 | 7.55 | 1100 ± 20 | 2200 ± 30 | 8.13 | 1000 ± 100 | 1800 ± 100 | 8.17 | – | – | – | – | – | – |
| CC\C=C/C=C/C=C/C=C\CCCCCCCC(=O)O [CPA, cis-parinaric acid] | – | – | – | – | – | – | – | – | – | – | – | – | 1000 ± 20 | 600 ± 100 | 4500 ± 200 | 1200 ± 100 | – | – |
| CCCCC/C=C\C/C=C\CCCCCCCC(=O)O [Linoleic acid, linoleic acid] | 5300 ± 20 | 7600 ± 30 | 7.19 | – | – | – | – | – | 8.29 | – | – | – | – | – | – | – | 1600 ± 100 | 800 ± 40 |
| CCCCCCCCCCCCCCCC(=O)O [Palmitic acid, palmitic acid] | 3600 ± 100 | 5200 ± 100 | 7.41 | – | – | – | – | – | 8.39 | – | – | – | – | – | – | – | 1400 ± 100 | 700 ± 30 |
| CCCCCCCCCCCCCCCC(=O)OC[C@@H](O)COP(=O)([O-])OCC[N+](C)(C)C [Phosphatidyl choline (vesicular), 1-palmitoyl–sn–glycerol–3–phosphatadyl choline] | 3900 ± 100 | 5600 ± 100 | 7.37 | 3600 ± 100 | 6800 ± 200 | 7.41 | 700 ± 40 | 1500 ± 100 | 8.35 | 800 ± 100 | 1500 ± 100 | 8.29 | – | – | – | – | – | – |
